Experimental findings from PubChem BioAssay (NCI) are described below.

Some test systems named below: MOLT-4 leukemia; U251 CNS; SF-295 CNS; OVCAR-3 ovarian; SNB-75 CNS; UO-31 renal; 786-0 renal; MDA-MB-231 breast; SNB-19 CNS; HCT-116 colon; CAKI-1 renal; RXF 393 renal; MDA-MB-435; SW-620 colon; PC-3 prostate; K-562 leukemia; HT29 colon; SR leukemia.
Assay in all cases: inhibition of tumour cell growth, NCI panel, 48 h

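Cells were grown in 96-well plates and exposed to each compound for 48 hours at five concentrations; endpoints were interpolated linearly between bracketing concentrations, or set to the highest concentration if not reached. TGI marks complete inhibition of growth.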

As to `c1ccc(/N=C2\c3ccccc3CN2c2ccccn2)nc1`, the TGI with MOLT-4 leukemia, in the experiment on U251 CNS, with SF-295 CNS, in the experiment with OVCAR-3 ovarian, in the experiment on SNB-75 CNS and in the experiment with UO-31 renal was more than 100 µM in each case. For the same compound, the TGI with 786-0 renal, in the experiment on MDA-MB-231 breast, in the experiment with SNB-19 CNS, in the experiment with HCT-116 colon, in the experiment on CAKI-1 renal and in the experiment with RXF 393 renal was more than 100 µM each time. Moreover, the TGI with MDA-MB-435, in the experiment with SW-620 colon, in the experiment with PC-3 prostate, in the experiment with K-562 leukemia and in the experiment on HT29 colon was more than 100 µM in each case.

In the case of `COC(=O)c1ccc(CCc2cc(O)c(Br)cc2O)cc1`, the TGI is 6.65 µM in the experiment on MOLT-4 leukemia; 25.8 µM with U251 CNS; 28 µM in the experiment on SF-295 CNS; 19.8 µM in the experiment with OVCAR-3 ovarian; more than 59.6 µM with SNB-75 CNS; 18.1 µM in the experiment with UO-31 renal. In addition, the TGI in the experiment on 786-0 renal is 27.5 µM; with MDA-MB-231 breast, 29 µM; with SNB-19 CNS, 33.1 µM; with HCT-116 colon, 14.3 µM; with CAKI-1 renal, 23.2 µM; in the experiment with RXF 393 renal it was 32.9 µM. Besides, the TGI is 22.6 µM in the experiment with MDA-MB-435; 14.4 µM in the experiment with SR leukemia; 30.5 µM with SW-620 colon; 20.6 µM in the experiment on PC-3 prostate; 32.8 µM with HT29 colon.

Consider `N#C[C@@]12CCCC(=O)[C@@H]1[C@H]1CCC[C@H]12`, for which the TGI with MOLT-4 leukemia is 55.9 µM; in the experiment with U251 CNS it was 35.5 µM; with SF-295 CNS it was 44.6 µM; in the experiment on OVCAR-3 ovarian, 23.7 µM; with SNB-75 CNS, 36 µM; with UO-31 renal, 30 µM. The TGI turned out to be 29.4 µM in the experiment with 786-0 renal; 31.2 µM with MDA-MB-231 breast; 42.4 µM in the experiment on SNB-19 CNS; 30.8 µM with HCT-116 colon; 31.4 µM with CAKI-1 renal; 33.5 µM in the experiment on MDA-MB-435. The TGI with SR leukemia is 59.5 µM; in the experiment with SW-620 colon, 45.2 µM; in the experiment with PC-3 prostate it was 35.7 µM; in the experiment on K-562 leukemia it was 37.7 µM; with HT29 colon, 52.4 µM.

Regarding `COc1ccc(-n2c3c(c4c(CN(C)C)c(O)ccc42)C(=O)c2ccccc2C3=O)cc1`, the TGI in the experiment on MOLT-4 leukemia was more than 100 µM; in the experiment with U251 CNS, more than 100 µM; in the experiment with SF-295 CNS it was 33.2 µM; in the experiment on OVCAR-3 ovarian it was 30.8 µM; in the experiment on UO-31 renal it was 5.11 µM; in the experiment on 786-0 renal, 4.52 µM. Also, the TGI in the experiment on MDA-MB-231 breast was 7.67 µM; in the experiment on SNB-19 CNS it was more than 100 µM; with HCT-116 colon, 3.98 µM; in the experiment with CAKI-1 renal, 34.5 µM; in the experiment with RXF 393 renal, 52.2 µM; with MDA-MB-435, 30.9 µM. Further, the TGI turned out to be 6.84 µM in the experiment with SR leukemia; 7.53 µM with SW-620 colon; 37.1 µM with PC-3 prostate; 4.62 µM with K-562 leukemia; 6.3 µM in the experiment on HT29 colon.

Turning to `CCOC(=O)C1(C(=O)OCC)CC(=O)[C@@]2(C1)OCC[C@H]1OC(=O)C[C@H]12`, the TGI in the experiment on MOLT-4 leukemia, with U251 CNS, with SF-295 CNS, in the experiment on OVCAR-3 ovarian, in the experiment on SNB-75 CNS and in the experiment on UO-31 renal was more than 100 µM each time. In addition, the TGI in the experiment on 786-0 renal, with MDA-MB-231 breast, in the experiment with SNB-19 CNS, in the experiment on HCT-116 colon, in the experiment with CAKI-1 renal and with MDA-MB-435 was more than 100 µM in each case. The TGI in the experiment on SR leukemia, with SW-620 colon, with PC-3 prostate and in the experiment on HT29 colon was more than 100 µM in each case.

Consider `CC(=O)O[C@H]1C(=O)[C@@]2(C)[C@H]([C@H](OC(=O)c3ccccc3)[C@]3(O)C[C@H](OC(=O)[C@H](O)[C@@H](NC(=O)CC(C)C)c4ccccc4)C(C)=C1C3(C)C)[C@]1(OC(C)=O)CO[C@@H]1C[C@@H]2O`, for which the TGI with MOLT-4 leukemia was more than 10 µM; in the experiment with U251 CNS, more than 10 µM; with SF-295 CNS, 0.508 µM; with SNB-75 CNS, 0.0253 µM; with UO-31 renal, more than 10 µM; with 786-0 renal, more than 10 µM. The TGI is more than 10 µM with MDA-MB-231 breast; more than 10 µM in the experiment with SNB-19 CNS; more than 10 µM in the experiment on HCT-116 colon; more than 10 µM in the experiment with CAKI-1 renal; 0.138 µM with SR leukemia; more than 10 µM in the experiment with SW-620 colon. In addition, the TGI with K-562 leukemia was more than 10 µM; in the experiment on HT29 colon, 0.0296 µM.

`COc1cc(/C=C/C(=O)N[C@@H]2C(=O)N3[C@@H]2SC(C)(C)[C@@H]3C(=O)O)cc(OC)c1OC`: the TGI in the experiment with MOLT-4 leukemia, in the experiment with U251 CNS, in the experiment on SF-295 CNS, in the experiment on OVCAR-3 ovarian, in the experiment on SNB-75 CNS and in the experiment with UO-31 renal was more than 100 µM each time. Besides, the TGI with 786-0 renal, in the experiment with MDA-MB-231 breast, with SNB-19 CNS, in the experiment on HCT-116 colon, in the experiment on CAKI-1 renal and in the experiment with RXF 393 renal was more than 100 µM throughout. The TGI with MDA-MB-435, in the experiment on SW-620 colon, in the experiment with PC-3 prostate, with K-562 leukemia and in the experiment with HT29 colon was more than 100 µM throughout.

On to `CN(C)CCNC1=CC(=O)c2c(O)ccc(O)c2C1=O`, for which the TGI in the experiment on MOLT-4 leukemia was more than 100 µM; with U251 CNS, 24.4 µM; with SF-295 CNS it was 24.3 µM; with OVCAR-3 ovarian, 5.67 µM; in the experiment with SNB-75 CNS it was 31.9 µM; in the experiment on UO-31 renal it was 17 µM. Moreover, the TGI in the experiment on 786-0 renal turned out to be 15.4 µM; in the experiment on MDA-MB-231 breast, 25 µM; with SNB-19 CNS, 31.6 µM; in the experiment on HCT-116 colon it was 9.05 µM; with CAKI-1 renal, 27.3 µM; in the experiment with RXF 393 renal it was 31.4 µM. Besides, the TGI was 3.33 µM in the experiment on MDA-MB-435; 10.1 µM with SW-620 colon; 21.5 µM with PC-3 prostate; more than 100 µM with K-562 leukemia; 8.75 µM in the experiment with HT29 colon.

In the case of `CSc1nc(O)c(/C=C2\C=Nc3ccccc32)[nH]1`, the TGI in the experiment on MOLT-4 leukemia, in the experiment with U251 CNS, in the experiment with OVCAR-3 ovarian, in the experiment with SNB-75 CNS, in the experiment with UO-31 renal and in the experiment on 786-0 renal was more than 100 µM in each case. The TGI in the experiment with MDA-MB-231 breast, in the experiment on SNB-19 CNS, in the experiment on HCT-116 colon, in the experiment on RXF 393 renal, with MDA-MB-435 and in the experiment on SR leukemia was more than 100 µM throughout. The TGI in the experiment on SW-620 colon, with PC-3 prostate, in the experiment with K-562 leukemia and in the experiment on HT29 colon was more than 100 µM each time.
